Results published in patent US9168259B2 (GRÜNENTHAL GMBH, priority 2010, dated 2015).

Target: T1, KCNQ2/3 channels (Homo sapiens, UniProt O43525+O43526)
T1 construct: expressed in transfected cells
Assay: Fluorescence assay using a voltage sensitive dye (fluorimetry)
Format: cell-based
Settings: CHO-K1 cells expressing KCNQ2/3; for Emax: CHO-K1, plateau effect relative to saturated retigabine (50 μM) = 100%, negative values = antagonistic, read-out: Fluorimetry % efficacy (retigabine = 100%); for EC50: IC50 where % efficacy is negative, read-out: Fluorimetry EC50/IC50

T1 sequence (O43526 whole entry): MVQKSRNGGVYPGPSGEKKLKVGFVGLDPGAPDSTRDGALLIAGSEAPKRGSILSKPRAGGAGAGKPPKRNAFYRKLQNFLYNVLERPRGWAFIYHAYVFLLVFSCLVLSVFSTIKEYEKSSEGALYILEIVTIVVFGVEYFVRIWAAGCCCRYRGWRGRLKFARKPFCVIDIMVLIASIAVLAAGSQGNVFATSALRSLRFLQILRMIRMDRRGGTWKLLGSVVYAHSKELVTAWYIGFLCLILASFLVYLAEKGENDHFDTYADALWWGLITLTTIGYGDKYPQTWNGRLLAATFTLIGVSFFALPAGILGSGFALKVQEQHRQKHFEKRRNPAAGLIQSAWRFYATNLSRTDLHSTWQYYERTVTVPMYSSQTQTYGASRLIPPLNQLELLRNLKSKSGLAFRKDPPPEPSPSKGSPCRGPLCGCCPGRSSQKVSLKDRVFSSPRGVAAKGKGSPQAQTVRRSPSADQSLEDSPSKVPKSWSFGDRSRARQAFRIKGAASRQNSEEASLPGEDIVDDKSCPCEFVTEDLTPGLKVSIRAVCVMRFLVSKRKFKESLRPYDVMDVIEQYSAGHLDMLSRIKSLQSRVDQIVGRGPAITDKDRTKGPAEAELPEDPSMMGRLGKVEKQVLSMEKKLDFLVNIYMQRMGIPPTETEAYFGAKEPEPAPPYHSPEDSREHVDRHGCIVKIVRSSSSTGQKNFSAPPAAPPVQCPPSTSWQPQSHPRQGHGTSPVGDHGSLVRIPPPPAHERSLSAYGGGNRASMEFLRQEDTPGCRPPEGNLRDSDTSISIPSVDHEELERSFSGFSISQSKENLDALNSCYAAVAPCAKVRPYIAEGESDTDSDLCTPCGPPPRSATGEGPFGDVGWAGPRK
T1 sequence (O43525 whole entry): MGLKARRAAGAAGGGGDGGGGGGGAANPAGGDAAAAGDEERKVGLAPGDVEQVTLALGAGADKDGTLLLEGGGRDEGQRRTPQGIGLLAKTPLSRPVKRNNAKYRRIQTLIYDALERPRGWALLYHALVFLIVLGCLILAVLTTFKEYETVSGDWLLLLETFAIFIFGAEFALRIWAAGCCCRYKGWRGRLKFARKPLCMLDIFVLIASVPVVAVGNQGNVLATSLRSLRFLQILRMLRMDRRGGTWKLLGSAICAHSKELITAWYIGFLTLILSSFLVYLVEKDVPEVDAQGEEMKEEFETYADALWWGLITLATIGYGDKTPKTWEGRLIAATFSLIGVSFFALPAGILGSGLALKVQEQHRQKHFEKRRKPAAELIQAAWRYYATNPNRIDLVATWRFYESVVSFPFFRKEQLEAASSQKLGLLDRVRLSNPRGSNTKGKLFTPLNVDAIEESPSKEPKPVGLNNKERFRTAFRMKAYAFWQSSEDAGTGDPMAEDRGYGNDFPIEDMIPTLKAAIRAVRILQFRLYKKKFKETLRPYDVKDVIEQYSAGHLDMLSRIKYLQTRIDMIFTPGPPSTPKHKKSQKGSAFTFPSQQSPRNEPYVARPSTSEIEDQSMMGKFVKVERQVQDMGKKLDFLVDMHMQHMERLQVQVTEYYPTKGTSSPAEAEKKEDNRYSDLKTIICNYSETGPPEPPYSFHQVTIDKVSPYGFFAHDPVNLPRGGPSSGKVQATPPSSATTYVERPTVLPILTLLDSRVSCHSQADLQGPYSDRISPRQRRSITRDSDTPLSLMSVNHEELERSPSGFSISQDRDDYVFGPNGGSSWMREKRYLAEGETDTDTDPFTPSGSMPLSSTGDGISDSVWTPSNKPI

`CCSc1nc(N2CCN(C)CC2)cc(C)c1C(=O)NCc1cccc(F)c1` [Example 31, 2-Ethylsulfanyl-N-[(3-fluorophenyl)-methyl]-4-methyl-6-(4-methyl-piperazin-1-yl)-pyridine-3-carboxylic acid amide] was tested. Which Emax did it give?
Its Emax is 23%.

Which Emax does the source give for `COc1nc(N2CCOC[C@H]2C)cc(C)c1C(=O)NCc1cc(F)cc(F)c1` [Example 234, N-[(3,5-Difluoro-phenyl)-methyl]-2-methoxy-4-methyl-6-[(3R)-3-methyl-morpholin-4-yl]-pyridine-3-carboxylic acid amide] here?
Its Emax is 195%.

What about the EC50 of the same compound?
The EC50 was 124 nM.

Which results are given for `CCOc1nc(N2CCOC[C@H]2C)cc(C)c1C(=O)NCc1ccc(Cl)cc1` [Example 273, N-[(4-Chlorophenyl)-methyl]-2-ethoxy-4-methyl-6-[(3R)-3-methyl-morpholin-4-yl]-pyridine-3-carboxylic acid amide]?
Emax: 163%; EC50: 137 nM

`CCSc1nc(N(C)c2ccccc2)cc(C)c1C(=O)NCc1cccc(F)c1` [Example 302, 2-Ethylsulfanyl-N-[(3-fluorophenyl)-methyl]-4-methyl-6-(N-methyl-anilino)-pyridine-3-carboxylic acid amide] was tested. Which Emax did it give?
Its Emax is 93%.

And the EC50?
Its EC50 is 278 nM.

With `CCSc1nc(N2CCN3C(=O)CCC3C2)cc(C)c1C(=O)NCc1cccc(F)c1` (stereo not shown) [Example 158, 2-Ethylsulfanyl-N-[(3-fluorophenyl)-methyl]-4-methyl-6-(6-oxo-2,3,4,7,8,8a-hexahydro-1H-pyrrolo[1,2-a]pyrazin-2-yl)-pyridine-3-carboxylic acid amide] as the compound, how does the Emax read?
The Emax was 60%.

For `CCSc1nc(N2CCOCC2)cc(C)c1C(=O)NCc1cccc(COC)c1` [Example 131, 2-Ethylsulfanyl-N-[[3-(methoxymethyl)-phenyl]-methyl]-4-methyl-6-morpholin-4-yl-pyridine-3-carboxylic acid amide], which Emax is on record?
The Emax was 137%.

And the EC50?
The EC50 was 1250 nM.

With `CCSc1nc(N(C)C2CCOC2)cc(C)c1C(=O)NCc1cccc(F)c1` (stereo not shown) [Example 301, 2-Ethylsulfanyl-N-[(3-fluorophenyl)-methyl]-4-methyl-6-(methyl-tetrahydro-furan-3-yl-amino)-pyridine-3-carboxylic acid amide] as the compound, how does the Emax read?
Its Emax is 132%.

And the EC50?
The EC50 was 767 nM.

`CCSc1nc(N2CCOCC2)cc(C)c1C(=O)NCc1ccc(Cl)cc1` [Example 124, N-[(4-Chlorophenyl)-methyl]-2-ethylsulfanyl-4-methyl-6-morpholin-4-yl-pyridine-3-carboxylic acid amide] was tested. Which Emax did it give?
Its Emax is 149%.

And the EC50?
Its EC50 is 82 nM.

Which Emax does the source give for `CCSc1nc(N2CCOCC2)cc(C)c1C(=O)NCc1cccc(OC(F)(F)F)c1` [Example 130, 2-Ethylsulfanyl-4-methyl-6-morpholin-4-yl-N-[[3-(trifluoromethyloxy)-phenyl]methyl]-pyridine-3-carboxylic acid amide] here?
The Emax was 148%.

What about the EC50 of the same compound?
The EC50 was 74 nM.

For `CCC(C)Cc1nc(N2CCOCC2)cc(C)c1C(=O)NCCCC(C)(C)C` (stereo not shown) [Example 278, N-(4,4-Dimethyl-pentyl)-4-methyl-2-(2-methyl-butyl)-6-morpholin-4-yl-pyridine-3-carboxylic acid amide], which Emax is on record?
Its Emax is 225%.

What about the EC50 of the same compound?
The EC50 was 36 nM.

For `Cc1cc(N2CCOCC2)nc(C2CC2)c1C(=O)NCc1ccc(C(F)(F)F)cc1` [Example 334, 2-Cyclopropyl-4-methyl-6-morpholin-4-yl-N-[[4-(trifluoromethyl)-phenyl]-methyl]-pyridine-3-carboxylic acid amide], which Emax is on record?
Its Emax is 124%.

What about the EC50 of the same compound?
The EC50 was 96 nM.

What does the source list for `CCSc1nc(N(C)Cc2ccc(C(F)(F)F)cc2)cc(C)c1C(=O)NCc1cccc(F)c1` [Example 297, 2-Ethylsulfanyl-N-[(3-fluorophenyl)-methyl]-4-methyl-6-[methyl-[[4-(trifluoromethyl)-phenyl]-methyl]-amino]-pyridine-3-carboxylic acid amide]?
Emax: 125%; EC50: 177 nM

With `CCSc1nc(N2CCOCC2)cc(C)c1C(=O)NCc1cccc(F)n1` [Example 45, 2-Ethylsulfanyl-N-[(6-fluoro-pyridin-2-yl)-methyl]-4-methyl-6-morpholin-4-yl-pyridine-3-carboxylic acid amide] as the compound, how does the Emax read?
Its Emax is 151%.

And the EC50?
The EC50 was 3140 nM.

With `CCSc1nc(N2CCOCC2)cc(C)c1C(=O)NCCOC` [Example 77, 2-Ethylsulfanyl-N-(2-methoxy-ethyl)-4-methyl-6-morpholin-4-yl-pyridine-3-carboxylic acid amide] as the compound, how does the Emax read?
The Emax was 40%.

Which Emax does the source give for `CCSc1nc(N2CCOCC2)cc(C)c1C(=O)NCC(C)(C)C` [Example 47, N-(2,2-Dimethyl-propyl)-2-ethylsulfanyl-4-methyl-6-morpholin-4-yl-pyridine-3-carboxylic acid amide] here?
The Emax was 119%.

What about the EC50 of the same compound?
The EC50 was 2610 nM.

`CCSc1nc(NC)cc(C)c1C(=O)NCc1cccc(F)c1` [Example 34, 2-Ethylsulfanyl-N-[(3-fluorophenyl)-methyl]-4-methyl-6-methylamino-pyridine-3-carboxylic acid amide] was tested. Which Emax did it give?
Its Emax is 37%.

What about the EC50 of the same compound?
The EC50 was 1830 nM.

Which Emax does the source give for `Cc1cc(N2CCOCC2)nc(OC2COC2)c1C(=O)NCc1cccc(F)c1` [Example 317, N-[(3-Fluorophenyl)-methyl]-4-methyl-6-morpholin-4-yl-2-(oxetan-3-yloxy)-pyridine-3-carboxylic acid amide] here?
Its Emax is 116%.

And the EC50?
Its EC50 is 1120 nM.

What does the source list for `CCSc1nc(N2CC3CC2CO3)cc(C)c1C(=O)NCc1cccc(F)c1` (stereo not shown) [Example 159, 2-Ethylsulfanyl-N-[(3-fluorophenyl)-methyl]-4-methyl-6-(3-oxa-6-azabicyclo[2.2.1]heptan-6-yl)-pyridine-3-carboxylic acid amide]?
Emax: 149%; EC50: 1260 nM

Which Emax does the source give for `CCSc1nc(N(C)c2cccnc2)cc(C)c1C(=O)NCc1cccc(F)c1` [Example 171, 2-Ethylsulfanyl-N-[(3-fluorophenyl)-methyl]-4-methyl-6-(methyl-pyridin-3-yl-amino)-pyridine-3-carboxylic acid amide] here?
The Emax was 62%.

And the EC50?
Its EC50 is 1940 nM.

What does the source list for `CCSc1nc(N2CCOCC2)cc(C)c1C(=O)NCc1ccccc1` [Example 55, N-Benzyl-2-ethylsulfanyl-4-methyl-6-morpholin-4-yl-pyridine-3-carboxylic acid amide]?
Emax: 162%; EC50: 260 nM

How did the Emax turn out when `CCCc1nc(N2CCOCC2)cc(C)c1C(=O)NCc1ccc(C(F)(F)F)cc1` [Example 323, 4-Methyl-6-morpholin-4-yl-2-propyl-N-[[4-(trifluoromethyl)-phenyl]-methyl]pyridine-3-carboxylic acid amide] was run?
The Emax was 130%.

What about the EC50 of the same compound?
Its EC50 is 102 nM.

`Cc1cc(N2CCOCC2)nc(C(C)C)c1C(=O)NCCCC(F)(F)F` [Example 315, 2-Isopropyl-4-methyl-6-morpholin-4-yl-N-(4,4,4-trifluoro-butyl)-pyridine-3-carboxylic acid amide] was tested. Which Emax did it give?
The Emax was 187%.

And the EC50?
The EC50 was 314 nM.

Which Emax does the source give for `CCSc1nc(N2CCOCC2)cc(C)c1C(=O)NCCCC(C)(F)F` [Example 308, N-(4,4-Difluoro-pentyl)-2-ethylsulfanyl-4-methyl-6-morpholin-4-yl-pyridine-3-carboxylic acid amide] here?
Its Emax is 249%.

What about the EC50 of the same compound?
Its EC50 is 397 nM.

For `CCSc1nc(N2CCOC[C@@H]2CO)cc(C)c1C(=O)NCc1cccc(F)c1` [Example 263, 2-Ethylsulfanyl-N-[(3-fluorophenyl)-methyl]-6-[(3S)-3-(hydroxymethyl)-morpholin-4-yl]-4-methyl-pyridine-3-carboxylic acid amide], which Emax is on record?
Its Emax is 114%.

And the EC50?
The EC50 was 4140 nM.

Which results are given for `CCSc1nc(N2CCOCC2)cc(C)c1C(=O)NCc1ccccc1C(F)(F)F` [Example 51, 2-Ethylsulfanyl-4-methyl-6-morpholin-4-yl-N-[[2-(trifluoromethyl)-phenyl]methyl]-pyridine-3-carboxylic acid amide]?
Emax: -84%; EC50: 541 nM

With `CCSc1nc(N(C)C(=O)c2ccc(F)cc2)cc(C)c1C(=O)NCc1cccc(F)c1` [Example 120, 2-Ethylsulfanyl-6-[(4-fluoro-benzoyl)-methyl-amino]-N-[(3-fluorophenyl)-methyl]-4-methyl-pyridine-3-carboxylic acid amide] as the compound, how does the Emax read?
Its Emax is 10%.

How did the Emax turn out when `CCSc1nc(N2CCN(C(C)=O)CC2)cc(C)c1C(=O)NCc1cccc(F)c1` [Example 144, 6-(4-Acetyl-piperazin-1-yl)-2-ethylsulfanyl-N-[(3-fluorophenyl)-methyl]-4-methyl-pyridine-3-carboxylic acid amide] was run?
The Emax was 59%.

What does the source list for `CCSc1nc(N2CCOCC2)cc(C)c1C(=O)NCCCc1ccncc1` [Example 115, 2-Ethylsulfanyl-4-methyl-6-morpholin-4-yl-N-(3-pyridin-4-yl-propyl)-pyridine-3-carboxylic acid amide]?
Emax: 96%; EC50: 7970 nM

For `CCSc1nc(N2CCOCC2)cc(C)c1C(=O)NCc1ccccc1-c1ccc(F)cc1` [Example 71, 2-Ethylsulfanyl-N-[[2-(4-fluorophenyl)-phenyl]-methyl]-4-methyl-6-morpholin-4-yl-pyridine-3-carboxylic acid amide], which Emax is on record?
The Emax was -102%.

What about the EC50 of the same compound?
The EC50 was 275 nM.

For `CCSc1nc(N2CCOCC2)cc(C)c1C(=O)NCCC(O)C(C)C` (stereo not shown) [Example 286, 2-Ethylsulfanyl-N-(3-hydroxy-4-methyl-pentyl)-4-methyl-6-morpholin-4-yl-pyridine-3-carboxylic acid amide], which Emax is on record?
Its Emax is 198%.

And the EC50?
The EC50 was 1750 nM.

With `CCSc1nc(N2CCOCC2)cc(C)c1C(=O)NCc1ccc(F)c(C)c1` [Example 201, 2-Ethylsulfanyl-N-[(4-fluoro-3-methyl-phenyl)-methyl]-4-methyl-6-morpholin-4-yl-pyridine-3-carboxylic acid amide] as the compound, how does the Emax read?
Its Emax is 127%.

What about the EC50 of the same compound?
The EC50 was 135 nM.

Which Emax does the source give for `CCSc1nc(N2CCOCC2)cc(C)c1C(=O)NCc1ccc(F)cn1` [Example 46, 2-Ethylsulfanyl-N-[(5-fluoro-pyridin-2-yl)-methyl]-4-methyl-6-morpholin-4-yl-pyridine-3-carboxylic acid amide] here?
The Emax was 143%.

And the EC50?
Its EC50 is 4830 nM.

What does the source list for `CCSc1nc(N2CCO[C@H](CO)C2)cc(C)c1C(=O)NCc1cccc(F)c1` [Example 291, 2-Ethylsulfanyl-N-[(3-fluorophenyl)-methyl]-6-[(2S)-2-(hydroxymethyl)-morpholin-4-yl]-4-methyl-pyridine-3-carboxylic acid amide]?
Emax: 53%; EC50: 7950 nM
